Assay results: patent US20150238487A1, “NOVEL ERGOLINE DERIVATIVES AND USES THEREOF” (MAP Pharmaceuticals, Inc., priority 2012, published 2015)

How the values were obtained:
[1] = tested on: NMDA (NR1/NR2A/NR2B/NR2C/NR2D); assay: NMDA receptor channel Fluo-8 calcium FLIPR assay; type: cell-based, human; details: HEK293, Fluo-8 calcium FLIPR, agonist and antagonist assessment
Description: Studies for NMDA receptors, NR1, NR2A, NR2B, NR2C, NR2D receptor, were conducted to monitor receptor activity for 8′OH-2CF3-dihydroergotamine (8′OH-2CF3-DHE) using the Fluo-8 calcium kit and a Fluorescence Imaging Plate Reader (FLIPR^TETRA™) instrument. The following channels were evaluated: Cloned NMDA receptor (NR1/NR2A) channel (encoded by the GRIN1 and GRIN2A genes, coexpressed in HEK293 cells; Cloned NMDA receptor (NR1/NR2B) channel (encoded by the GRIN1 and GRIN2B genes, coexpressed in HEK293 cells; Cloned NMDA receptor (NR1/NR2C) channel (encoded by the GRIN1 and GRIN2C genes, coexpressed in HEK293 cells; and Cloned NMDA receptor (NR1/NR2D) channel (encoded by the GRIN1 and GRIN2D genes, transiently coexpressed in HEK293 cells.
For the agonist assessment, the effect of 8′OH-2CF3-DHE was evaluated in the absence of the positive control agonist. The signal, elicited in the presence of the agonist (100 μM Glutamic acid+20 μM Glycine), was set to 100% activation and the signal in the presence of the vehicle control (Mg^2+-free HB-PS) was set to 0% activation.
For the antagonist assessment, NR1/NR2A and NR1/NR2B was activated with the positive control agonist (100 μM Glutamic acid+20 μM Glycine). The ability of 8′OH-2CF3-DHE to inhibit the signal was examined after agonist stimulation and compared to the positive control antagonist (MK-801). […]

[2] = biological target: T1, Serotonin 5-HT2B (Homo sapiens, UniProt P41595); assay: Aequorin assay, Serotonin 5-HT2B; type: cell-based; details: antagonism; CHO-K1 mAeq Gα16, Aequorin
T1 construct: expressed in transfected cells; host or cells: CHO-K1 mAeq Gα16
Description: (§1) Receptor […] activity assays were performed using 8′OH-2-CF3-dihydroergotamine (8′OH-2-CF3-DHE). Table 1 summarizes the cell lines (CHO-K1/HEK293 transfected with relevant human receptor) and the assays performed to detect any agonist or antagonist activity.
(§2) Aequorin assays were conducted to monitor activity for 8′OH-2CF3-dihydroergotamine (8′OH-2CF3-DHE) against the receptors indicated in Table 1 above (except for mGlu3 and mGlu5). CHO-K1 cells coexpressing mitochondrial apoaequorin and the recombinant human receptor of interest were grown to mid-log phase in culture media without antibiotics and then detached with PBS-EDTA, centrifuged and resuspended in assay buffer (DMEM/HAM's F12 with HEPES, without phenol red+0.1% BSA, protease free) at a concentration of 1×10^6 cell/mL. […]
(§3) 50 μL of the cell suspension was mixed with 50 μL of test or reference agonist in a 96-well plate. The resulting emission of light was recorded using Hamamatsu Functional Drug Screening System 6000 (FDSS 6000) luminometer. […]
(§4) To standardize the emission of recorded light (and determine of the “100% signal”) across plates and across different experiments, some wells contained 100 μM digitonin or a saturating concentration of ATP (20 μM).

[3] = biological target: T2, Adrenergic α2C (Homo sapiens, UniProt P18825); assay: GTPγ[35S] assay, Adrenergic α2C; type: biochemical; details: antagonism, CHO-K1 membranes, read-out: Activity (Antagonism: IC50), Adrenergic a2C
T2 construct: expressed in transfected cells; host or cells: CHO-K1 (membrane extracts)
Description: as §1
(§5) GTPγS studies were conducted to monitor agonist activity for 8′OH-2CF3-dihydroergotamine (8′OH-2CF3-DHE) against the receptors indicated in Table 1 above. Reagents used were the following: Assay buffer (20 mM HEPES, pH 7.4; 100 mM NaCl; 10 μg/mL saponin; 30 mM MgCl2); Membranes (recombinant human receptor membrane extracts were thawed on ice and diluted in assay buffer to give 1000 μg/mL ([…]) and kept on ice); GDP (diluted in assay buffer to give 30 μM solution (3 μM final concentration); beads (PVT-WGA (Amersham, RPNQ001), diluted in assay buffer at 25 mg/mL (0.25 mg/10 μL)); GTPγ^35S (Perkin Elmer, NEG030X), diluted in assay buffer to give 0.1 nM (final concentration); and ligand (agonist/antagonist diluted in assay buffer).
(§6) Membranes were mixed with GDP (1:1) and incubated for at least 15 minutes on ice. In parallel GTPγ^35S was mixed with the beads (1:1) just before starting the reaction. […] The plates were then centrifuged for 10 minutes at 2000 rpm and incubated at room temperature for 1 hour and counted for 1 min/well with a Perkin Elmer TopCount reader.

[4] = biological target: T3, Serotonin 5-HT1B (Homo sapiens, UniProt P28222); assay: GTPγ[35S] assay, Serotonin 5-HT1B; type: biochemical; details: agonism, CHO-K1 membranes
T3 construct: expressed in transfected cells; host or cells: CHO-K1 (membrane extracts)
Description: as §1, §5, §6

[5] = biological target: T4, Serotonin 5-HT2A (Homo sapiens, UniProt P28223); assay: Aequorin assay, Serotonin 5-HT2A; type: cell-based; details: agonism; CHO-K1 mAeq Gα16, Aequorin
T4 construct: expressed in transfected cells; host or cells: CHO-K1 mAeq Gα16
Description: as §1, §2, §3, §4

[6] = tested on: Purinergic (P2X1/P2X2/P2X3/P2X4/P2X7); assay: Purinergic receptor QPatch patch clamp study; type: cell-based, human; details: HEK293, QPatch HT, agonist and antagonist modes at 10 and 30 μM
Description: Purinergic receptor studies were conducted to monitor activity for 8′OH-2CF3-dihydroergotamine (8′OH-2CF3-DHE) against the P2X1, P2X2, P2X3, P2X4 and P2X7 receptors. Human recombinant purinergic receptor expressing HEK293 cells were used and receptor activity was evaluated at room temperature using QPatch HT® (Sophion Bioscience A/S, Denmark) automatic parallel patch clamp system. 8′OH-2CF3-DHE was evaluated in both agonist and antagonist modes at 10 and 30 μM. Each concentration was tested in triplicates.

T1 sequence (P41595 whole entry): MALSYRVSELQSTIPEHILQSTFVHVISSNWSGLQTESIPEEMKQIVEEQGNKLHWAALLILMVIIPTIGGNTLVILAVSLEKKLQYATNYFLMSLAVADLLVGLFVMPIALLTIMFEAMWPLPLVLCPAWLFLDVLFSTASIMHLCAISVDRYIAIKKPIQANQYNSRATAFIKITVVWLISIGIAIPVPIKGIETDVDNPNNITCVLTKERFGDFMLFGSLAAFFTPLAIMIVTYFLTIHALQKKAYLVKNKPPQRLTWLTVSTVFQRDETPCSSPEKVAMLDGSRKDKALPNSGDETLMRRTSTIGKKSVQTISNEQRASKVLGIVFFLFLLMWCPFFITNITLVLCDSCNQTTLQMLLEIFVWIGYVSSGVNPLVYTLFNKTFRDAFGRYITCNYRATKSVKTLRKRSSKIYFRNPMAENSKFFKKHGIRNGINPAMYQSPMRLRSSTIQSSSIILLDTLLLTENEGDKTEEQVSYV
T4 sequence (P28223 whole entry): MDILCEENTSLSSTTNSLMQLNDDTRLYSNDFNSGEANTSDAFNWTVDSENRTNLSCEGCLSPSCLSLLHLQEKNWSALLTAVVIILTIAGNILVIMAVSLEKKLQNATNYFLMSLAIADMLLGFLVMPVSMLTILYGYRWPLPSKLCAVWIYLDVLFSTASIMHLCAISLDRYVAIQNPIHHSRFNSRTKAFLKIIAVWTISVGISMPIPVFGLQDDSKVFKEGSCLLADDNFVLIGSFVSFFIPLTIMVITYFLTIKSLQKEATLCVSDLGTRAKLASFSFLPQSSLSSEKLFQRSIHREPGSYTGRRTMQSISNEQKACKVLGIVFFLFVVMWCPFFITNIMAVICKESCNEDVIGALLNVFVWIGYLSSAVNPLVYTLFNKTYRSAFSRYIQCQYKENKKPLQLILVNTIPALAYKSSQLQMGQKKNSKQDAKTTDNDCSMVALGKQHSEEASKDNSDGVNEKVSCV
T3 sequence (P28222 whole entry): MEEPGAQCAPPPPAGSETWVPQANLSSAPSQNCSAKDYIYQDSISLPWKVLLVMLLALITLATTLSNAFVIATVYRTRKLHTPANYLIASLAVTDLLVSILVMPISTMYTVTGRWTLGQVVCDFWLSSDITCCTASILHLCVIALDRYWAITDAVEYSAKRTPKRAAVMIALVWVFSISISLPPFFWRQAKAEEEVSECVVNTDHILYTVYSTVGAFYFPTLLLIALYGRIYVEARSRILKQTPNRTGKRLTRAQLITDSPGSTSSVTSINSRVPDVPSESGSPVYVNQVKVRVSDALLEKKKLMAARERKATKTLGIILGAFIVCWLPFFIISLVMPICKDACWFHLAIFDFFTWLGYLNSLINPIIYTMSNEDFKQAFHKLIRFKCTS
T2 sequence (P18825 whole entry): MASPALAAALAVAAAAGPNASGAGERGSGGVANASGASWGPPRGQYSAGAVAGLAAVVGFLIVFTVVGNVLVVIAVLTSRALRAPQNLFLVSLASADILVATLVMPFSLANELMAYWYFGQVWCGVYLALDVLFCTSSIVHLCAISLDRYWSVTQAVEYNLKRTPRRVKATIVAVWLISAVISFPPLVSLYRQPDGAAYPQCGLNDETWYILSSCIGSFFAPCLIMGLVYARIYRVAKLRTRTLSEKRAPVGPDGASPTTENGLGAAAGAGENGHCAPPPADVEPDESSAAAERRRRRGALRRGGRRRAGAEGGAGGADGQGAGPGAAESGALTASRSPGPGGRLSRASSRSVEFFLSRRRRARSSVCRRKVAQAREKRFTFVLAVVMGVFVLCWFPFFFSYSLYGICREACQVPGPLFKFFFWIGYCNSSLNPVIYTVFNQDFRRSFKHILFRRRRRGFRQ

In the case of `CN1C[C@H](C(=O)N[C@]2(C)O[C@@]3(O)[C@@H]4CC[C@@H](O)N4C(=O)[C@H](Cc4ccccc4)N3C2=O)C[C@@H]2c3cccc4[nH]c(C(F)(F)F)c(c34)C[C@H]21` [8′OH-2-CF3-DHE, 8′-Hydroxy-2-CF3-dihydroergotamine], the “Activity (Agonism: EC50; Antagonism: IC50), NMDA (NR1/NR2A/NR2B/NR2C/NR2D)” value [1] is reported as “Inactive”, the IC50 [2] is reported as 0.0882 µM and the IC50 [3] is reported as greater than 10 µM. The EC50 [4] was 0.405 µM, the EC50 [5] was 0.607 µM and the “Activity (Agonism: EC50; Antagonism: IC50), Purinergic (P2X1/P2X2/P2X3/P2X4/P2X7)” value [6] was “Inactive”.
